“Also recorded” adds a separate entry of the source.

For assay [1], the target named is T1, polyubiquitin-dependent second interaction between NEMO and IKK2 (Homo sapiens, UniProt O14920).
T1 construct: proteins of HEK293T cells expressing full length human IKK2 were extracted; expressed in transfected cells; host or cells: HEK293T whole cell lysate supplied HA-IKK2; GST-NEMO 241-419 was expressed in E. coli Rosetta (DE3)
T1 sequence (O14920 1-756): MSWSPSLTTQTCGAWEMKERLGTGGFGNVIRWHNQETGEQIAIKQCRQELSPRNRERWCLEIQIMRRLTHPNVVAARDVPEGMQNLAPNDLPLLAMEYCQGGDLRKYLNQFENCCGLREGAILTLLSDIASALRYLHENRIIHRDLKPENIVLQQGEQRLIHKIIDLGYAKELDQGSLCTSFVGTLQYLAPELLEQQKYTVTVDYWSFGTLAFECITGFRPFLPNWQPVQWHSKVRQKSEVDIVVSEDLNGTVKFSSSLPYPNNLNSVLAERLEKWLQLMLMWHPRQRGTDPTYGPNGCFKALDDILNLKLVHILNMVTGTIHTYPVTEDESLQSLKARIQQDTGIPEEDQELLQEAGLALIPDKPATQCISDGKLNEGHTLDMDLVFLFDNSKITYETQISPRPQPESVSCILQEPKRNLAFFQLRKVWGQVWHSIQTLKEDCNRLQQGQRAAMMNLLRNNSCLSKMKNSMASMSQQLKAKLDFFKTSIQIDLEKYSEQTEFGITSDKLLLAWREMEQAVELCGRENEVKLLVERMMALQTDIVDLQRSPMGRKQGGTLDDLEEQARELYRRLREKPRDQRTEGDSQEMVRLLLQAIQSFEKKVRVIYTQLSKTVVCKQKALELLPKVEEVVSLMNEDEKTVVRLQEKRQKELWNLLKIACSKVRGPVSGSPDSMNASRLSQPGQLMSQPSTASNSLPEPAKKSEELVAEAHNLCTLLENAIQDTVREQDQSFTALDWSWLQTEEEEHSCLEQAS
The experiment in a line: Peptide in vitro GST pull-down from HA-IKK2-transfected HEK293T whole cell lysates. Format: binding. The following applies: peptide 200-25 μM. Here is the method: Proteins of HEK293T cells transfected with full length human IKK2 or mutants were extracted using RIPA buffer. After centrifugation at 16,000×g for 20 minutes, the supernatants were adjusted to the binding buffer (containing 1.5 mU Hexokinase) and incubated on a rotating platform for 1 hour at 4° C. These whole-cell extracts were then incubated with E. coli-expressed GST-fusion NEMO in the absence or presence of Ub4 on a rotating platform for 2 hours at 4° C. The beads were centrifuged at 1,000×g for 2 minutes and washed four times in binding buffer. Proteins bound to beads were resuspended in SDS loading buffer, resolved by SDS-PAGE, and analyzed by western blot.
For peptide in vitro pull-down assay, proteins of HEK293T cells expressing full length human IKK2 were extracted using the same lysis buffer described above. Whole cell lysates were mixed with E. coli-expressed GST-NEMO with or without NEMO^ActPep or mNEMO^ActPep at different concentrations in the absence of presence of Ub4 and incubated on a rotating platform for 2 hours at 4° C. The beads were then washed four times in the binding buffer. Proteins bound to beads were resuspended in SDS-PAGE loading buffer, separated by SDS-PAGE, and analyzed by western blot. […]

In assay [2] the test system is constitutive nuclear transcription factor Oct1. The experiment in a line: EMSA of Oct1 binding to its probe, HeLa nuclear extracts. Format: cell-based, human. The conditions noted are these: peptide 10-50 μM.
Assay [3] deals with NF-κB activation in bone marrow-derived macrophage (BMDM) cells. Description: EMSA of NF-κB activation in LPS-treated BMDM cells. The following applies: 50 μM peptide pre-incubation. Format: cell-based, C57BL/6J mice. On the procedure:
Electrophoretic mobility shift assay (EMSA) was performed using recombinant full length NF-κB ReIA homodimer as a positive control as previously described (45). Briefly, Ig-κB probe was radiolabeled with ^32P-γ-ATP (6,000 Ci/mmol; 10 μCi/μL) and incubated with nuclear lysates for 20 minutes at room temperature in binding buffer (10 mM Tris-HCl pH 7.5, 10% (v/v) glycerol, 1% (v/v) NP-40, 1 mM EDTA, and 0.1 mg/mL salmon sperm DNA). Samples separated in 4% nondenaturing polyacrylamide gels in TGE buffer (24.8 mM Tris base, 190 mM glycine, and 1 mM EDTA) at 200 V for 1 hour, and the gel was dried. The amount of protein in lysates was quantified by Bio-Rad protein assay. EMSA analysis with quantitative densitometry and signal intensity was quantitated using ImageJ software. All EMSA experiments were performed in triplicate.
With the approval of the UCSD and Veteran Affairs San Diego Institutional Animal Care and Use Committees (IACUC), bone marrow-derived macrophage (BMDM) cells were isolated from 6-8 weeks old C57BL/6J mice (Jackson Laboratory) followed by erythrocyte lysis with ammonium chloride, and then seeded in 12-well plates at a concentration of 1×10^6 cells/mL. Cultured cells were differentiated to macrophages with culture media containing monocyte-colony stimulating factor (M-CSF; 10 ng/mL). […]
Background: Mobility shift assays separate free from complexed probe on a gel.

For the substance “TAT-NEMO^ActPep: HIV-1 TAT fused flexibly to human NEMO amino acids 375-391; cell permeable version of NEMO activation peptide (SEQ ID NO 2) (YGRKKRRQRRRGGLSSPLALPSQRRSPPEE)”, the “HA-IKK2 pulled down by GST-NEMO^241-419 in the presence of Ub4 (NEMO:IKK2 second interaction, western blot)” value in assay [1] is given as “loss of this interaction was observed with increasing concentrations”. Moreover, the “binding of Oct1 to its probe (EMSA)” value in assay [2] was “not affected”. For the same substance, the “NF-κB activation in response to LPS (EMSA)” value in assay [3] is given as “inhibition of NF-κB activation; also recorded: disrupts NF-κB-dependent shift of the radiolabeled probe”.

(Values after patent US20240166703A1, “ANTI-INFLAMMATORY PEPTIDE AND METHOD OF USE THEREOF” (The Regents of the University of California, priority 2021, published 2024).)
